Assay [1] has as its target T1, potassium ion channel hERG (human Ether-á-go-go-Related Gene) (Homo sapiens, UniProt Q12809).
T1 construct: expressed in transfected cells; host or cells: Chinese hamster ovary K1 (CHO)
The assay is described as follows: Assay 5 - hERG assay (SyncroPatch 384PE patch clamp, CHO cells). The assay is classed as cell-based. The settings on record: geometric mean; CHO cells over-expressing hERG; read-out: Assay 5 (hERG Hu CHO IF EPh CR-Syncro) GMean IC50. On the procedure: Assay 5—hERG Assay (Human Ether-á-go-go-Related Gene)
This assay (human Ether-á-go-go-Related Gene) measures activity of the compounds at the potassium ion channel hERG (human Ether-á-go-go-Related Gene).
Experiments were performed on the SyncroPatch 384PE high throughput patch clamp platform at room temperature and medium resistance chips with 4 patch holes per site. Chinese hamster ovary K1 (CHO) cell lines over-expressing the ion channel of choice (hERG) were used in assay-ready format and kept in liquid nitrogen or were used from live culture. Cells were either thawed and diluted in HBSS or were detached from flasks and resuspended in HBSS. HBSS comprised 140 mM NaCl, 4 mM KCl, 10 mM HEPES and 5 mM Glucose (pH7.4). The internal patch clamp solution was KF 120 mM, KCl 20 mM, HEPES 10 mM, EGTA 10 mM, and 25 PM Escin (pH 7.2). After the sealing process was complete, the external solution was exchanged for external patch clamp solution comprising NaCl 80 mM, KCl 4 mM, HEPES 10 mM, CaCl2 2 mM, MgCl2 1 mM, glucose 5 mM, and NMDG 60 mM (pH 7.4). All solutions were stored at room temperature, except Escin, which was stored at 4° C. All test compounds were dispensed in greiner-bio 384 well plates and tested in a 6 point cumulative assay (final DMSO concentration 0.33%). Only wells that passed previously agreed acceptance criteria for this platform were used in this analysis (30 MegaOhm seal resistance, Z prime >0.4 and current size >0.2 nA).

In assay [2] the target is GSK3β (Glycogen synthase kinase-3 beta) (Homo sapiens, UniProt P49841). The assay is described as follows: Assay 6 - GSK3β assay (ThermoFisher Z-Lyte). To be noted: geometric mean; ATP Conc: 10 μM; read-out: Assay 6 (GSK3β FRET-Z-Lyte CR) GMean IC50 (μM) ATP Conc: 10. Format: biochemical. On the procedure: Assay 6—GSK3β Assay (ThermoFisher Assay)
Chain of GSK3β (Glycogen synthase kinase-3 beta) (P49841 whole entry): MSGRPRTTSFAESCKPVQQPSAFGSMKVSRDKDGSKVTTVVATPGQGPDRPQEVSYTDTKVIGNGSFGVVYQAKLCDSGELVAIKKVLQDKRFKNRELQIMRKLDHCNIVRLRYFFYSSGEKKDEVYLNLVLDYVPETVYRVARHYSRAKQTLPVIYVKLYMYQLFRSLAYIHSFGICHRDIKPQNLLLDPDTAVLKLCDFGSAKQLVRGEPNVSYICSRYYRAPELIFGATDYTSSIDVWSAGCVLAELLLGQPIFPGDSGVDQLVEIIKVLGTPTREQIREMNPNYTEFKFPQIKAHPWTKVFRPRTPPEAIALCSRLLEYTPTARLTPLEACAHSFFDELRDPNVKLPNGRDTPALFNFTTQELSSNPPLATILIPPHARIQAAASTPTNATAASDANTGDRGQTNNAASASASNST
This assay measures the activity of the compounds at GSK3β (Glycogen synthase kinase-3 beta).
The test compounds were screened in 1% DMSO (final) in the well. For 10 point titrations, 3-fold serial dilutions are conducted from the starting concentration of 10 μM.
Bar-coded Corning, low volume NBS, black 384-well plate • 1. 2.5 μL—4× Test Compound or 100 nL 100× plus 2.4 μL kinase buffer • 2. 5 μL—2× Peptide/Kinase Mixture • 3. 2.5 μL—4×ATP Solution • 4. 30-second plate shake • 5. 60-minute Kinase Reaction incubation at room temperature • 6. 5 μL—Development Reagent Solution • 7. 30-second plate shake • 8. 60-minute Development Reaction incubation at room temperature • 9. Read on fluorescence plate reader and analyse the data
In step 2, the 2×GSK3β (GSK3 beta)/Ser/Thr (Glycogen synthase kinase-3 beta/Serine/Threonine) 09 mixture is prepared in 50 mM HEPES (4-(2-hydroxyethyl)-1-piperazineethanesulfonic acid) pH 7.5, 0.01% BRIJ-35, 10 mM MgCl2, 1 mM EGTA (egtazic acid). The final 10 μL Kinase Reaction consists of 0.22-0.92 ng GSK3β (GSK3 beta) and 2 μM Ser/Thr 09 in 50 mM HEPES pH 7.5, 0.01% BRIJ-35, 10 mM MgCl2, 1 mM EGTA.
In step 3 the ATP Solution is diluted to a 4× working concentration in Kinase Buffer (50 mM HEPES pH 7.5, 0.01% BRIJ-35, 10 mM MgCl2, 1 mM EGTA).
In Step 6 the Development Reagent is diluted 1:512 in Development Buffer (10× Novel PKC Lipid Mix: 2 mg/mL Phosphatidyl Serine, 0.2 mg/mL DAG in 20 mM HEPES, pH 7.4, 0.3% CHAPS).
SelectScreen® Kinase Profiling Service uses XLfit from IDBS. The dose response curve is curve fit to model number 205 (sigmoidal dose-response model).

Assay [3] concerns the target T2, PCSK9 (Homo sapiens, UniProt Q8NBP7, G670E/V474I). The assay is described as follows: biochemical.
The target of assay [4] is T2, PCSK9. The assay is described as follows: Assay 3 - PCSK9 LDL-C uptake assay in HepG2 cells. Set-up: TEV cleavage site (C); His6 (C); host or cells: added to HepG2 cells (ATCC #HB-8065). Format: cell-based. The settings on record: 125 nM PCSK9, pHrodo Red-LDL, read-out: Assay 3 LDL uptake potency. From the text: Assay 3—PCSK9 LDL-C Uptake Assay
This assay measures for PCSK9 antagonist activity based on a test compound's capacity to restore LDL-C-uptake in HepG2 cells. The assay is based on exogenous PCSK9 and LDL-C complexed with a pH-sensitive dye. Outside the cells, at neutral pH, the pHrodo Red-LDL is dimly fluorescent but upon LDLR mediated endocytosis it fluoresces brightly. PCSK9 traffics the LDLR to intracellular degradation and reduces uptake of LDL-C. Inhibition of PCSK9 reduces LDLR degradation and the increased LDL-C uptake is quantified by fluorescence microscopy.
Preparation of Assay Reagents
Cell medium: MEM supplemented with 10% FBS, 1×NEAA and Sodium Pyruvate Assay medium: OptiMem supplemented with penicillin/streptomycin
Cells: HepG2 (ATCC #HB-8065)
Step by Step Protocol for Running the Assay:
• 1. Cryopreserved HepG2 cells were thawed in assay medium and centrifuged for 5 min at 250 g. Supernatant was discarded and the cell pellet resuspended in cell medium and counted with a Nucleocounter. Cells were again centrifuged 5 min at 250 g and the pellet was resuspended to 500000 cells/mL in assay medium. • 2. 20 μL of above cell mix was dispensed into black pclear TC treated 384 well plates with Multidrop Combi and left at room temperature for 20 minutes. • 3. Plates were incubated at 37° C., 5% CO2 for 24 h
• 1. Test compounds were prepared in concentration response in DMSO with a half-log dilution factor in DMSO in Echo 384 LDV plates starting at 10 mM. • 2. 30 nL of above test compounds were dispensed with Echo 655 to cells for a top concentration of 10 μM • 3. 10 μL PCSK9 in assay medium was dispensed to cells with Multidrop Combi for 125 nM final concentration in the wells. • 4. Plates were incubated at 37° C., 5% CO2 for 24 h
• 1. 10 μL pHrodo Red-LDL in assay medium was dispensed to cells with Multidrop Combi for 6 μg/mL • 2. Plates were incubated at 37° C., 5% CO2 and imaged with the Incucyte S3 after 4 h and 24 h
Image data was processed using Incucyte 2021, a software to identify cells and red fluorescent intensity. Screener was used to further process data. Data was normalized as % effect of the signal between median values of the on-plate controls of DMSO and 100 nM Evolocumab according to the formula % effect=−100*(x−DMSO)/(Evolocumab−DMSO) where x equals the measured signal. Concentration response data of the normalized values were fitted using a four-parameter logistic fit.

T2 sequence (Q8NBP7 with tags, fused parts or gaps V474I/G670E): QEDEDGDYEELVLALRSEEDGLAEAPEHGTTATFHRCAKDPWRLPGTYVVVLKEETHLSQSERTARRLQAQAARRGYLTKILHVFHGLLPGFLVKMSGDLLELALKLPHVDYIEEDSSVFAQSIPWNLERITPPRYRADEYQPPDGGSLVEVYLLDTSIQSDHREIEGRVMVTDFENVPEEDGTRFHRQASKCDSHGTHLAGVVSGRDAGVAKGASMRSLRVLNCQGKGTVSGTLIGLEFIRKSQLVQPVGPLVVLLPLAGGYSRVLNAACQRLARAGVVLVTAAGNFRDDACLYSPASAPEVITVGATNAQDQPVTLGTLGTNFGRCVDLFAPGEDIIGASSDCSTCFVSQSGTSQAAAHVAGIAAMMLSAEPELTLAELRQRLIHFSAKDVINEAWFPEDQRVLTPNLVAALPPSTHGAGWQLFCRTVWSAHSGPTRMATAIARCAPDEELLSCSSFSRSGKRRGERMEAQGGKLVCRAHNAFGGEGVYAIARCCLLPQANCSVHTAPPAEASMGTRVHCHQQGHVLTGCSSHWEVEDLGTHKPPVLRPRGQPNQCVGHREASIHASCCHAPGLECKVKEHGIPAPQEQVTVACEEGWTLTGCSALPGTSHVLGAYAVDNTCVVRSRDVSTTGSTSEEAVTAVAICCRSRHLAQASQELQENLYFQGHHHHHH
T1 sequence (Q12809 whole entry): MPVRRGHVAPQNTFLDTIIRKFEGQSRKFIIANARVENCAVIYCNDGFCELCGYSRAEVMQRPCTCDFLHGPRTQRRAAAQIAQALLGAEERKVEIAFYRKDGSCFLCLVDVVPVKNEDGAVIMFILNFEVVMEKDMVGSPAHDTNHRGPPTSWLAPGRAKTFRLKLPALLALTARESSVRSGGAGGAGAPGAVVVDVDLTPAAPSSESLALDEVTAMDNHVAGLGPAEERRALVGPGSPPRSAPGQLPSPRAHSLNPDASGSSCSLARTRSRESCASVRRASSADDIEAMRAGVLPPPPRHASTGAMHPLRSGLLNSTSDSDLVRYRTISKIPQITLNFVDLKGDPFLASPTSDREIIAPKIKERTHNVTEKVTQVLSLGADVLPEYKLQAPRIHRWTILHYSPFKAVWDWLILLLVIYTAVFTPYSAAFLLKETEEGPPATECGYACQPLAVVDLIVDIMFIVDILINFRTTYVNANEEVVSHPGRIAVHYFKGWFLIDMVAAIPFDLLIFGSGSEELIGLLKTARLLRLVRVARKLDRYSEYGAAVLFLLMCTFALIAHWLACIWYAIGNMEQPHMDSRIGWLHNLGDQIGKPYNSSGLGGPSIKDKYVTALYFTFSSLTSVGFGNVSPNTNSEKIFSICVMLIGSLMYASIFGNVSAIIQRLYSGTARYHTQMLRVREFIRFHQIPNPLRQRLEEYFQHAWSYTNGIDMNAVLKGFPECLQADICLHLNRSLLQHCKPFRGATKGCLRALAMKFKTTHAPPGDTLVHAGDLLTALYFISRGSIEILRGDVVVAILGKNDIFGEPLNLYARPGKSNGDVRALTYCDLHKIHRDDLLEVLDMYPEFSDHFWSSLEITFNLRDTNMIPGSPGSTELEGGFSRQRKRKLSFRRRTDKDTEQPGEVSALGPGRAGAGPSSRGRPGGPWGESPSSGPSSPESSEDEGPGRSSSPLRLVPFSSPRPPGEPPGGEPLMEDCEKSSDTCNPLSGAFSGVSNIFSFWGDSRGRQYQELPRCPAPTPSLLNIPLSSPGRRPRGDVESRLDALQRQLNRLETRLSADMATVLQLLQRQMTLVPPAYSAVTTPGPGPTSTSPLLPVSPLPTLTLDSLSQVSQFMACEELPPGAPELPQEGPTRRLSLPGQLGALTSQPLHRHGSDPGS

As for `COc1cccn(-c2ccc(N[C@H]3CC[C@H](Nc4cnc(C)cn4)C3)nc2)c1=O` (racemic) [Example 170, rel-3-Methoxy-6′-(((1R,3R)-3-((5-methylpyrazin-2-yl)amino)cyclopentyl)amino)-2H-[1,3′-bipyridin]-2-one], the values for the concentration for half-maximal inhibition (IC50) (in assay [1]; in assay [2]; against PCSK9 [3]) were over 40.1 µM, 7 µM and 0.011 µM, respectively. Besides, the EC50 at PCSK9 [4] was determined as 0.2 µM.

Take `COc1cccn(-c2ccc(N[C@H]3CC[C@H](Nc4cnc(C)cn4)C3)nc2)c1=O` (relative stereo) [Example 172, rel-3-Methoxy-6′-(((1R,3R)-3-((5-methylpyrazin-2-yl)amino)cyclopentyl)amino)-2H-[1,3′-bipyridin]-2-one]: the IC50 is over 40.1 µM in assay [1], 3.7 µM in assay [2] and 0.0053 µM at PCSK9 [3]. Further, the EC50 at PCSK9 [4] is 0.1 µM.

Consider `Cc1ncc(N[C@H]2CC[C@H](Nc3ccc(-n4c(=O)n(C)c5ccccc54)cn3)C2)nc1C` [Example 11, 1-(6-(((1S,3S)-3-((5,6-Dimethylpyrazin-2-yl)amino)cyclopentyl)amino)pyridin-3-yl)-3-methyl-1,3-dihydro-2H-benzo[d]imidazol-2-one], for which the half-inhibitory concentration (IC50) in assay [1] is 20.2 µM; in assay [2] it was over 10 µM; against PCSK9 [3], 0.0032 µM. The EC50 at PCSK9 [4] is 0.3 µM.

On to `COc1cccn(-c2ccc(N[C@H]3CC[C@H](Nc4cnc(C)c(C)n4)C3)nc2)c1=O` [Example 12, 6′-(((1S,3S)-3-((5,6-Dimethylpyrazin-2-yl)amino)cyclopentyl)amino)-3-methoxy-2H-[1,3′-bipyridin]-2-one], for which the IC50 is over 40 µM in assay [1], over 10 µM in assay [2] and 0.013 µM on PCSK9 [3]. Further, the EC50 at PCSK9 [4] was determined as 0.1 µM.

Take `COc1cccn(-c2ccc(N[C@H]3CC[C@H](Nc4cnc(Cl)cn4)C3)nc2)c1=O` [Example 13, 6′-(((1S,3S)-3-((5-Chloropyrazin-2-yl)amino)cyclopentyl)amino)-3-methoxy-2H-[1,3′-bipyridin]-2-one]: the results for the IC50 (in assay [1]; in assay [2]; against PCSK9 [3]) were 35.6 µM, over 10 µM and 0.004 µM, respectively. The EC50 at PCSK9 [4] turned out to be 0.2 µM.

Consider `O=c1ccc(-c2nnn[nH]2)cn1-c1ccc(N[C@H]2CC[C@H](Nc3cnc(Cl)cn3)C2)nc1` [Example 179, 6′-(((1S,3S)-3-((5-Chloropyrazin-2-yl)amino)cyclopentyl)amino)-5-(1H-tetrazol-5-yl)-2H-[1,3′-bipyridin]-2-one], for which the 50% inhibitory concentration (IC50) amounted to 6.9 µM in assay [2] and 0.0047 µM at PCSK9 [3]. In addition, the EC50 on PCSK9 [4] was determined as 0.1 µM.

As for `Cc1cnc(N[C@H]2CC[C@H](Nc3ccc(-n4nccc(C)c4=O)cn3)C2)cn1` [Example 227, 4-Methyl-2-(6-(((1S,3S)-3-((5-methylpyrazin-2-yl)amino)cyclopentyl)amino)pyridin-3-yl)pyridazin-3 (2H)-one], the IC50 in assay [1] is over 40.1 µM; in assay [2], over 10 µM; against PCSK9 [3], 0.012 µM.

As for `Cc1cnc(N[C@H]2CC[C@H](Nc3ccc(-n4nc(Cl)ccc4=O)cn3)C2)cn1` [Example 233, 6-Chloro-2-(6-(((1S,3S)-3-((5-methylpyrazin-2-yl)amino)cyclopentyl)amino)pyridin-3-yl)pyridazin-3 (2H)-one], the IC50 is over 40.1 µM in assay [1], over 10 µM in assay [2] and 0.024 µM at PCSK9 [3].

Turning to `O=c1[nH]ccnc1N[C@H]1CC[C@H](Nc2ccc(-n3ccccc3=O)cn2)C1` [Example 252, 6′-(((1S,3S)-3-((3-Oxo-3,4-dihydropyrazin-2-yl)amino)cyclopentyl)amino)-2H-[1,3′-bipyridin]-2-one], the results for the IC50 (in assay [1]; in assay [2]; on PCSK9 [3]) were over 40.1 µM, over 10 µM and 2.58 µM, respectively.

For the compound `Cc1cnc(N[C@H]2CC[C@H](Nc3ccc(-n4ccccc4=O)cn3)C2)c(=O)[nH]1` [Example 253, 6′-(((1S,3S)-3-((5-Methyl-3-oxo-3,4-dihydropyrazin-2-yl)amino)cyclopentyl)amino)-2H-[1,3′-bipyridin]-2-one], the half-maximal inhibitory concentration (IC50) is over 40.1 µM in assay [1], over 10 µM in assay [2] and 0.307 µM against PCSK9 [3].

On to `Cc1cnc(N[C@H]2CC[C@H](Nc3ccc(N4C(=O)CCc5ccccc54)cn3)C2)cn1` [Example 274, 1-(6-(((1S,3S)-3-((5-Methylpyrazin-2-yl)amino)cyclopentyl)amino)pyridin-3-yl)-3,4-dihydroquinolin-2 (1H)-one], for which the IC50 is 17.1 µM in assay [1], over 10 µM in assay [2] and 0.0081 µM against PCSK9 [3].

`Cc1cnc(N[C@H]2CC[C@H](Nc3ccc(N4C(=O)CCc5cccnc54)cn3)C2)cn1` [Example 276, 1-(6-(((1S,3S)-3-((5-Methylpyrazin-2-yl)amino)cyclopentyl)amino)pyridin-3-yl)-3,4-dihydro-1,8-naphthyridin-2 (1H)-one]: the half-inhibitory concentration (IC50) was over 40 µM in assay [1], over 10 µM in assay [2] and 0.08 µM at PCSK9 [3].

As to `Cc1cnc(N[C@H]2CC[C@H](Nc3ccc(-n4nccc(OC(F)F)c4=O)cn3)C2)cn1` [Example 282, 4-(Difluoromethoxy)-2-(6-(((1S,3S)-3-((5-methylpyrazin-2-yl)amino)cyclopentyl)amino)pyridin-3-yl)pyridazin-3 (2H)-one], the half-inhibitory concentration (IC50) in assay [1] is over 40.1 µM; in assay [2], over 10 µM; against PCSK9 [3], 0.01 µM.

For the origin of these results see patent publication US20240217951A1, “PCSK9 INHIBITORS AND METHODS OF USE THEREOF” (AstraZeneca AB, priority 2022, published 2024).
